Like-named read-outs stand apart in the source and are kept apart here.
What was measured:
[1] = biological target: T1, ACE2 (angiotensin-I converting enzyme 2) (Homo sapiens, UniProt Q9BYF1); assay: SPR; type: binding
[2] = biological target: T1, ACE2 (angiotensin-I converting enzyme 2); assay: SPR; type: binding; remark: listed apart in the source

T1 sequence (Q9BYF1 18-805): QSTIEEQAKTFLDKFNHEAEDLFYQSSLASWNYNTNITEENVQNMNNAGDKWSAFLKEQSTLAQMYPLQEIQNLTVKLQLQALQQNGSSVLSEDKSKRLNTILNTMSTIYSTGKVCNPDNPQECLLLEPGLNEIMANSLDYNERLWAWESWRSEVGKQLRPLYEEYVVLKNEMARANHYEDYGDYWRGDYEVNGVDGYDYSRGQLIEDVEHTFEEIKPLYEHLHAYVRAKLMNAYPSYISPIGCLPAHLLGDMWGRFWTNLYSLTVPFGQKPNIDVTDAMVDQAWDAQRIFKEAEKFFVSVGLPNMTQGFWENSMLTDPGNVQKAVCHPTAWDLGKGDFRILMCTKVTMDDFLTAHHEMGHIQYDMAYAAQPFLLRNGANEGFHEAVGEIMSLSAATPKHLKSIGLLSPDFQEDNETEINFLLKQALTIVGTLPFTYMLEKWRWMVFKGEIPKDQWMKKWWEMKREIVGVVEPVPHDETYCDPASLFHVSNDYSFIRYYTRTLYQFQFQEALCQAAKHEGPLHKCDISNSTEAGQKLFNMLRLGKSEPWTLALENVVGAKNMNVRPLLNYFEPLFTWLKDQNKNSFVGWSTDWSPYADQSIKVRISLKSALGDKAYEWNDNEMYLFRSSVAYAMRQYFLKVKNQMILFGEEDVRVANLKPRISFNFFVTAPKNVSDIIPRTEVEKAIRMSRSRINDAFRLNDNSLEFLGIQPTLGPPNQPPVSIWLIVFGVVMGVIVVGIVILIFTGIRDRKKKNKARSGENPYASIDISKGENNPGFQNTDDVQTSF

N=C(N)c1ccc(/N=N/Nc2ccc(C(=N)N)cc2)cc1 [DIZE, diminazene aceturate]
Kd [1]: 4.9 µM

Cc1ccc(NC(=O)c2ccc(CN3CCN(C)CC3)cc2)cc1Nc1nccc(-c2cccnc2)n1 [Ima, imatinib]
Kd [2]: 12.7 µM

CC(=O)/N=c1/sc(S(N)(=O)=O)nn1C [Met, methazolamide]
Kd [2]: 70 µM

C[C@]1(OC(=O)/C=C/c2ccccc2)C[C@@H](O)[C@]2(O)C=CO[C@@H](O[C@@H]3O[C@H](CO)[C@@H](O)[C@H](O)[C@H]3O)[C@@H]21 [Har, harpagoside]
Kd [2]: 86.1 µM
